1 compound from BindingDB's records for doi:10.1021/jm070166b (Merck Research Laboratories, 2007) can be followed below.

The assay is described as follows: Antagonist activity against human CCR2 receptor in human monocytes assessed as inhibition of chemotaxis.

In general, IC50 refers to the concentration at which inhibition is half-maximal. For `C[C@H]1CN([C@@H]2CC[C@H](C(=O)NCc3cc(C(F)(F)F)cc(C(F)(F)F)c3)C2)CC[C@@]12C=Cc1ccccc12` [(1S,3R)-N-{[3,5-bis(trifluoromethyl)phenyl]methyl}-3-[(1R,5'R)-5'-methylspiro[indene-1,4'-piperidine]-1'-yl]cyclopentane-1-carboxamide], the IC50 came out at 0.057 µM.
